The text below walks through data of ChEMBL document CHEMBL1799932, “Antimalarial pyrido[1,2-a]benzimidazoles” (J Med Chem, 2011).

Series [1] has as its system Rattus norvegicus. Nature of the series: Drug excretion in fasted Sprague-Dawley rat urine assessed as 1-(2-Diethylaminoethylamino)-3-[4-(trifluoromethyl)phenyl]-pyrido[1,2-a]benzimidazole-4-carbonitrile at 20 mg/kg, po after 48 hrs by LC-MS analysis. It counts as ADME, organism-based. Further details: dose 20 mg/kg, route oral. To be noted: in vivo.
Series [2] concerns Plasmodium berghei. Nature of the series: Antimalarial activity against GFP-transfected Plasmodium berghei strain ANKA infected in NMRI mouse assessed as reduction in parasitemia at 50 mg/kg, po administered as single dose measured on day 5 by FACS analysis. It counts as functional. Further details: scale not given: the % may be the effect or the level left. (In flow cytometry, cells or beads pass a laser one at a time.)

Series [3] relates to Plasmodium berghei. Briefly: Antimalarial activity against GFP-transfected Plasmodium berghei strain ANKA infected in NMRI mouse assessed as reduction in parasitemia at 50 mg/kg, po administered as single dose measured on day 2 by FACS analysis. It counts as functional. Further details: scale not given: the % may be the effect or the level left.
Series [4] relates to Plasmodium falciparum.
Description: Antimalarial activity against multidrug-resistant Plasmodium falciparum K1 infected in human red blood cells assessed as 3H-hypoxanthine incorporation after 48 hrs by liquid scintillation counting
In series [5] the test system is Rattus norvegicus. Nature of the series: Drug excretion in fasted Sprague-Dawley rat urine assessed as 1-(2-Diethylaminoethylamino)-3-[4-(trifluoromethyl)phenyl]-pyrido[1,2-a]benzimidazole-4-carbonitrile at 5 mg/kg, iv after 48 hrs by LC-MS analysis. Particulars: in vivo. It counts as ADME, organism-based. Details: dose 5 mg/kg, route intravenous.
A short description of series [6]: Metabolic stability in human liver microsomes assessed as degradation half life after 60 mins by LC-MS analysis. It counts as ADME, Microsome. In general terms: Liver microsomes are vesicles of endoplasmic reticulum, rich in cytochrome P450 enzymes.
Series [7] has as its system Rattus norvegicus. Briefly: AUC (0 to tlast) in fasted Sprague-Dawley rat assessed as 1-(2-Ethylaminoethylamino)-3-[4-(trifluoromethyl)phenyl]- pyrido[1,2-a]benzimidazole-4-carbonitrile level at 5 mg/kg, iv after 48 hrs by LC-MS analysis. It counts as ADME, organism-based, Plasma. Further details: time < 48 hr, dose 5 mg/kg, route intravenous. To be noted: in vivo.
Series [8] has as its system Rattus norvegicus. Briefly: Cmax in fasted Sprague-Dawley rat assessed as 1-(2-Ethylaminoethylamino)-3-[4-(trifluoromethyl)phenyl]- pyrido[1,2-a]benzimidazole-4-carbonitrile level at 20 mg/kg, po after 48 hrs by LC-MS analysis. It counts as ADME, organism-based. Further details: dose 20 mg/kg, route oral. To be noted: in vivo.
For series [9], the system named is Plasmodium berghei. Briefly: Antimalarial activity against GFP-transfected Plasmodium berghei strain ANKA infected in NMRI mouse assessed as increase in median survival time at 100 mg/kg/day, po administered for 4 days measured up to 30 days post infection (reference value: 5 to 7 days). It counts as functional.
In series [10] the test system is Rattus norvegicus. Briefly: Cmax in fasted Sprague-Dawley rat assessed as 1-(2-Ethylaminoethylamino)-3-[4-(trifluoromethyl)phenyl]- pyrido[1,2-a]benzimidazole-4-carbonitrile level at 5 mg/kg, iv after 48 hrs by LC-MS analysis. It counts as ADME, organism-based. Further details: dose 5 mg/kg, route intravenous. Particulars: in vivo.
For series [11], the system named is Plasmodium berghei. Nature of the series: Antimalarial activity against GFP-transfected Plasmodium berghei strain ANKA infected in NMRI mouse assessed as reduction in parasitemia at 25 mg/kg, po administered as single dose measured on day 4 by FACS analysis. It counts as functional. Details: scale not given: the % may be the effect or the level left.

Usually IC50 stands for the concentration needed to halve the response being measured. The term half-life denotes the time in which the quantity being followed falls by half. What is called Cmax is the maximum level reached in the sampled fluid or tissue. Regarding `CCN(CC)CCNc1cc(-c2ccc(C(F)(F)F)cc2)c(C#N)c2nc3ccccc3n12.Cl.Cl`, the Activity was found to be 0.05% in [1]; 78.22% in series [2]; 5.15% in [3]; 0.39% in [5]; 51.13% in series [11]. In series [4], this molecule came in with an IC50 of 80 nM. Besides, the half-life in [6] amounted to 13.7 min. Also, the AUClast in [7] turned out to be 666 µM·min. Further, the values for the Cmax in [8] and in series [10] were 920 nM and 540 nM, respectively. In series [9], the MSD was found to be 16 days.
